Results as given in patent publication US6358953B1, “Pterin antineoplastic agents” (priority 1998, dated 2002).

What was measured:
[1] = pterin suspensions tested by the NIH; cited from earlier work
[2] = test system: C3H/HeN-MTV+ mammary gland adenocarcinoma; conditions: oral gavage 3/16 mL of 5 mM pterin in 1.25 mM CaCl2 daily (about 7 mg/kg/day) for 8 days; Figure One
Experimental: LaRusso, P., et al. Cancer Research 50: 4900-4905 (1990). T/C is the ratio between the median tumor volume (MTV) of the Test group of tumor producing mice and the MTV of the Control group of mice. […] The median tumor volume of each group is determined, including zeros (remissions), for each day of measurement. The T/C value in percentage is an indication of antitumor effectiveness (Figure Two). A T/C equal to or less than 42% is considered significant antitumor activity. A T/C value <10% is indicative of a high degree of antitumor activity and is the level used by the National Cancer Institute to justify systematic toxicology studies preliminary to Investigational New Drug (IND) filing (termed DN-2 level activity).
The A-line at 42% represents the level of activity established by the N.C.I. for “significant antitumor activity”. The B-line at about 10% depicts the level representing a “high degree of antitumor activity”.

[3] = Treatment toxicity (body weight reduction) in athymic nude mice; type: in vivo; conditions: oral gavage once daily for 14 days; assessed from reductions in body weight
Experimental: MDA MB 231 breast cancer cells (5,000,000 cells in 100 uL of phosphate buffered saline) were injected subcutaneously into the right leg of female immunodeficient athymic nude mice. When the tumors reached a mean diameter of 3-5 mm, the mice were divided into two groups (8 mice per treatment group), and the treatment begun. The mice were treated by oral gavage once daily for 14 days with either 3/16 mL of the vehicle control (water) or with 3/16 mL of 5 mM CaCl2 .Pterin from Example 2.
(§1) Tumor dimensions and body weights were measured 4 times weekly for approximately three weeks from the start of treatment. Tumors were measured in three planes using Vernier calipers, and tumor volume (V) was calculated as follows: V=pi(x x y x z)/6, where x, y, and z are the tumor measurements minus skin thickness. The mean tumor volume was calculated at each time point. For each group, the mean of the ratio V/Vo was plotted as a function of time after treatment, and tumor growth delay calculated. Treatment toxicity was assessed from reductions in body weight after treatment. The mice were sacrificed if their tumor volumes reached greater than or equal to 1600 mm^3 or weight loss exceeded 25%.

[4] = test system: MDA MB 231 breast cancer cells; assay: Human breast tumor xenograft in athymic nude mice, oral gavage; type: in vivo; conditions: oral gavage once daily for 14 days, 3/16 mL, Figure Three
Source text: This study evaluated the activity of the test agent, CaPterin, on human mammary tumor xenografts in mice. Athymic nude (nu/nu) female mice, age 3-4 weeks, were purchased from Harlan Spreague Dawley, Inc. (Indianapolis, Ind.). The animals were housed four per cage in sterile filter-topped cages in ventilated cage racks and Microisolator™ cages (LabProducts, DE). Upon arrival, the mice were quarantined for at least four working days before use. The animal facility is AAALAC-accredited. Temperature is maintained at 72+/−5° F. and relative humidity at 35-70%; a 12-hour light/dark cycle was used. The mice were fed sterile, autoclavable, certified Purina rodent chow ad libitum. […] The water supply is analyzed quarterly for metals and trace contaminants. […]
as §1, with “The mice were sacrificed if their tumor volumes reached greater than or equal to 1600 mm^3 or weight loss exceeded 25%.” left out

Nc1nc2nccnc2c(=O)[nH]1 [Pterin]
antineoplastic activity [1]: no significant antineoplastic activity

CaCl2(pterin)4
median tumor volume (MTV) relative to controls [2]: strongly regresses tumor growth relative to controls

CaCl2(pterin)4 [CaPterin]
toxicity throughout the course of treatment [3]: no evidence of toxicity
mean growth response as relative tumor volume (V/Vo) relative to controls [4]: strongly regresses tumor growth relative to controls
